The test system of experiment [1] is human gastric cancer cells SGC-7901. The experiment is described as follows: Cell proliferation (MTT) assay, SGC-7901. The format is cell-based. The conditions noted are these: read-out: IC50 SGC-7901. As for the experimental part: (§1) The antiproliferative activities evaluation was conducted by using a modified procedure as described in the literature. Briefly, target tumour cells were grown to log phase in RPMI 1640 medium supplemented with 10% fetal bovine serum. After diluting to 3 × 10^4 cells mL^−1 with the complete medium, 100 µL of the obtained cell suspension was added to each well of 96-well culture plates. The subsequent incubation was performed at 37 °C, 5% CO2 atmosphere for 24 h before subjecting to antiproliferation assessment. The tested samples at pre-set concentrations were added to six wells with Doxorubicin (AMD) co-assayed as a positive reference. After 48 h of exposure period, 25 µL of PBS containing 2.5 mg·mL^−1 of MTT was added to each well. After 4 h, the medium was replaced by 150 µL DMSO to dissolve the purple formazan crystals produced. The absorbance at 570 nm of each well was measured using an ELISA plate reader. The data represented the mean of three experiments in triplicate and were expressed as means ± SD using Student’s test.

For experiment [2], the system named is human hepatoma cell SMMC-7721. The experiment in a line: Cell proliferation (MTT) assay, SMMC-7721. Type of experiment: cell-based. The conditions noted are these: read-out: IC50 SMMC-7721. As to the method:
as §1

Experiment [3] relates to human breast cancer cell MDA-MB-231. The experiment in a line: Cell proliferation (MTT) assay, MDA-MB-231. Type of experiment: cell-based. As for the experimental part:
as §1

The next experiment relates to human melanoma cell A375. The experiment is described as follows: Cell proliferation (MTT) assay, A375. Type of experiment: cell-based. As for the experimental part:
as §1

Another experiment addresses T1, telomerase (Homo sapiens, UniProt O14746).
T1 construct: endogenous in cells; host or cells: A375 human melanoma cells
The experiment is described as follows: Telomerase activity TRAP-PCR-ELISA assay (A375 cell extract). The format is biochemical. The conditions noted are these: IC50 inhibitory activity against telomerase, TRAP-PCR-ELISA, A375 cells, 24 h treatment. As to the method:
Thirty-six compounds were tested in a search for inhibitors of telomerase activity using the TRAP-PCR-ELISA assay. In detail, the A375 cells were firstly maintained in RPMI 1640 buffer (Hyclone, Miami, FL), supplemented with 10% fetal bovineserum (GIBCO, New York, NY), streptomycin (0.1 mg/mL) and penicillin (100 IU/mL) at 37 °C in a humidified atmosphere containing 5% CO2. After trypsinisation, 5 × 10^4 cultured cells in logarithmic growth were seeded into T25 flasks (Corning, New York, NY) and cultured to allow to adherence. […] After 24 h treatment, the cells were harvested by cell scraper orderly followed by washing once with PBS. The cells were lysed in 150 µL RIPA cell lysis buffer (Santa Cruz, Santa Cruz, CA), and incubated on ice for 30 min. The cellular supernatants were obtained via centrifugation at 12,000g for 20 min at 4 °C and stored at –80 °C. The TRAP-PCR-ELISA assay was performed using a telomerase detection kit (Roche, Basel, Switzerland) according to the manufacturer’s protocol. In brief, 2 µL of cell extracts were mixed with 48 µL TRAP reaction mixtures. TRAP primers and Taq polymerase are incubated at 25 °C for 30 min. PCR was then initiated at 94 °C, 120 s for predenaturation and performed using 35 cycles each consisting of 94 °C for 30 s, 50 °C for 30 s, 72 °C for 90 s. Then 20 µL of PCR products were hybridised to a digoxigenin (DIG)-labelled telomeric repeat specific detection probe. And the PCR products were immobilised via the biotin-labelled primer to a streptavidin-coated microtiter plate subsequently. The immobilised DNA fragments were detected with a peroxidase-conjugated anti-DIG antibody and visualised following the addition of the stop regent. The microtitre plate was assessed on TECAN Infinite M200 microplate reader (Mannedorf, Switzerland) at a wavelength of 490 nm, and the final value were presented as mean ± SD[23].
For orientation: In an ELISA, binding on a coated surface is turned into a signal by an enzyme label.

In experiment [4] the test system is human gastric cancer cells MGC-803. The experiment in a line: Cell proliferation (MTT) assay, MGC-803. Type of experiment: cell-based. The conditions noted are these: read-out: IC50 MGC-803. As for the experimental part:
as §1

Setting [5] is: Homo sapiens, MDA-MB-231, 48 h, read-out: IC50 MDA-MB-231, antiproliferative, MTT, 48 h exposure.
The mark [6] stands for this setting: Homo sapiens, A-375, 48 h, read-out: IC50 A375, antiproliferative, MTT, 48 h exposure.
Where [7] appears, read: antiproliferative, MTT, 48 h exposure.
Setting [8] is: antiproliferative, MTT, 48 h exposure, read-out: IC50 MDA-MB-231.
The mark [9] stands for this setting: antiproliferative, MTT, 48 h exposure, read-out: IC50 A375.

Read-outs that look alike come from different tables or passages of the source.

T1 sequence (O14746 whole entry): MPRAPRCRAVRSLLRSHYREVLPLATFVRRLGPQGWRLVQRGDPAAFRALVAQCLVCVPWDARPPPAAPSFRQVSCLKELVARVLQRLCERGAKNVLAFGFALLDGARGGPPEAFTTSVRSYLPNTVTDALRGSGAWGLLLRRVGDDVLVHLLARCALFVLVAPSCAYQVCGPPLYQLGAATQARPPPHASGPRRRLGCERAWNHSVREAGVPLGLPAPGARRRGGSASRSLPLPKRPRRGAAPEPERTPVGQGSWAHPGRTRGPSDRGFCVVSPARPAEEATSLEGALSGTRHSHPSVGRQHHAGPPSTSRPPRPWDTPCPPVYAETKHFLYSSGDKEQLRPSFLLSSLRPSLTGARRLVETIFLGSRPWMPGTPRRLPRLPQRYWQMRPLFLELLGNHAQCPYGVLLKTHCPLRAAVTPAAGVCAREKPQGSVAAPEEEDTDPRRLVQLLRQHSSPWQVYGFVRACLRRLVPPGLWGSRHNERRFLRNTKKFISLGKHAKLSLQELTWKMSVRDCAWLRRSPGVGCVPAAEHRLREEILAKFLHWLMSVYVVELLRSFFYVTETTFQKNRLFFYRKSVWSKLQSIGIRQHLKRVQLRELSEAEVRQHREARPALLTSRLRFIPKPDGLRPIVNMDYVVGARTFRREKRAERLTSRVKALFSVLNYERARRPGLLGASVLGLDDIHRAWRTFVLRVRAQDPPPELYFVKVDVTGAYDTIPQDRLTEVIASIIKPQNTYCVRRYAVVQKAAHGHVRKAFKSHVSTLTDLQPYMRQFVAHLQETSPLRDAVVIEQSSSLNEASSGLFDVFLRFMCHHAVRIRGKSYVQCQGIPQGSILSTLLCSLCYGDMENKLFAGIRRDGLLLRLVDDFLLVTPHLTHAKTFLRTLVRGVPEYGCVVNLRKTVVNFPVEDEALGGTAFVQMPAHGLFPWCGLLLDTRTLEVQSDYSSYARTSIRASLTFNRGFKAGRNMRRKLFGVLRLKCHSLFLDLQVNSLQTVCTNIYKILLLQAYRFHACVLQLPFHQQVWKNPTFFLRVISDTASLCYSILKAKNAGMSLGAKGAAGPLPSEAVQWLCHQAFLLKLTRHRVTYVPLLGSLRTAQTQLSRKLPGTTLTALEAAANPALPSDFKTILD

The IC50 is the concentration needed to halve the response being measured. For the compound `COc1cc(/C=C/C=C/S(=O)(=O)F)cc(OC)c1` [Compound 56], the IC50 in experiment [1] (Homo sapiens, SGC-7901, 48 h) came out at 34.5 ± 1.04 µM; in experiment [2] (Homo sapiens, SMMC-7721, 48 h), 19.3 ± 0.82 µM; in experiment [3] (setting [5]), 12.2 ± 0.92 µM; in the experiment with human melanoma cell A375 (setting [6]), 6.92 ± 0.44 µM; on telomerase it was 3.2 ± 0.55 µM.

As to `Cc1ccc(S(=O)(=O)n2cc(/C=C/S(=O)(=O)F)cn2)cc1` [Compound 61], the IC50 came to 28.2 ± 1.49 µM in experiment [2] (Homo sapiens, SMMC-7721, 48 h); 26.9 ± 1.2 µM in experiment [3] (setting [5]); 27.3 ± 1 µM in the experiment with human melanoma cell A375 (setting [6]); 27.1 ± 1.03 µM in experiment [4] (Homo sapiens, MGC-803, 48 h).

Regarding `CS(=O)(=O)c1ccc(/C=C/S(=O)(=O)F)cc1` [Compound 66], the IC50 stood at 52 ± 1.7 µM in experiment [2] (setting [7]), 30.3 ± 1.22 µM in experiment [3] (setting [8]), 8.56 ± 0.49 µM in the experiment with human melanoma cell A375 (setting [9]) and 19.6 ± 1.17 µM in experiment [4] (setting [7]).

For the compound `COc1cc(/C=C/S(=O)(=O)F)cc(OC)c1` [Compound 67], the IC50 in experiment [1] (Homo sapiens, SGC-7901, 48 h) stood at 50.3 ± 1.17 µM; in experiment [2] (Homo sapiens, SMMC-7721, 48 h), 15 ± 0.6 µM; in experiment [3] (setting [5]), 12.1 ± 0.37 µM; in the experiment with human melanoma cell A375 (setting [6]) it was 8.29 ± 0.42 µM; against telomerase, 1.87 ± 0.47 µM; in experiment [4] (Homo sapiens, MGC-803, 48 h), 16.1 ± 0.82 µM.

Turning to `O=S(=O)(F)/C=C/c1cc(C(F)(F)F)cc(C(F)(F)F)c1` [Compound 68], the IC50 in experiment [3] (setting [8]) amounted to 21.2 ± 0.8 µM; in the experiment with human melanoma cell A375 (setting [9]) it was 19.7 ± 1 µM; in experiment [4] (setting [7]), 37.4 ± 1.35 µM.

As for `O=S(=O)(F)/C=C/c1cc(Cl)cc(Cl)c1` [Compound 69], the IC50 in experiment [1] (Homo sapiens, SGC-7901, 48 h) is 36.8 ± 1.25 µM; in experiment [2] (Homo sapiens, SMMC-7721, 48 h), 11.5 ± 0.39 µM; in experiment [3] (setting [5]), 7.95 ± 0.4 µM; in the experiment on human melanoma cell A375 (setting [6]), 8.79 ± 0.61 µM; at telomerase, 4.22 ± 0.71 µM; in experiment [4] (Homo sapiens, MGC-803, 48 h) it was 25.1 ± 0.54 µM.

On to `COc1ccc(Cl)cc1/C=C/S(=O)(=O)F` [Compound 71], for which the IC50 in experiment [2] (Homo sapiens, SMMC-7721, 48 h) came out at 23.2 ± 0.78 µM; in experiment [3] (setting [5]), 8.09 ± 0.52 µM; in the experiment with human melanoma cell A375 (setting [6]), 8.65 ± 0.33 µM; at telomerase, 6.08 ± 1.3 µM; in experiment [4] (Homo sapiens, MGC-803, 48 h), 20.8 ± 0.79 µM.

On to `O=S(=O)(F)/C=C/c1cccc(I)c1` [Compound 72], for which the IC50 in experiment [2] (setting [7]) turned out to be 16.1 ± 0.91 µM; in experiment [3] (setting [8]), 22.6 ± 1 µM; in the experiment on human melanoma cell A375 (setting [9]), 13 ± 0.77 µM; in experiment [4] (setting [7]) it was 44.9 ± 1.13 µM.

For the compound `O=S(=O)(F)/C=C/c1ccccc1F` [Compound 73], the IC50 in experiment [3] (setting [8]) stood at 25.6 ± 0.97 µM; with human melanoma cell A375 (setting [9]) it was 11.2 ± 0.81 µM; in experiment [4] (setting [7]), 57.7 ± 1.44 µM.

On to `CC(C)c1cccc(/C=C/S(=O)(=O)F)c1` [Compound 74], for which the IC50 in experiment [1] (setting [7]) turned out to be 31.8 ± 0.82 µM; in experiment [3] (setting [8]), 34.7 ± 1.2 µM; in the experiment on human melanoma cell A375 (setting [9]), 26.8 ± 1.22 µM; in experiment [4] (setting [7]), 35.3 ± 1.25 µM.

Take `O=S(=O)(F)/C=C/c1ccccc1Br` [Compound 76]: the IC50 in experiment [1] (setting [7]) is 50.2 ± 1.79 µM; in experiment [3] (setting [8]), 36 ± 1.2 µM; in the experiment on human melanoma cell A375 (setting [9]) it was 18 ± 1.09 µM.

Take `CCOC(=O)c1cccc(/C=C/S(=O)(=O)F)c1` [Compound 77]: the IC50 is 23.6 ± 1.45 µM in experiment [2] (setting [7]), 19.4 ± 0.79 µM in experiment [3] (setting [8]), 13.7 ± 1.29 µM in the experiment with human melanoma cell A375 (setting [9]) and 51.8 ± 0.87 µM in experiment [4] (setting [7]).

For `O=S(=O)(F)/C=C/c1cc(Cl)nc(Cl)c1` [Compound 80], the IC50 in experiment [1] (Homo sapiens, SGC-7901, 48 h) worked out at 26.8 ± 1.01 µM; on telomerase, 49.3 ± 2.55 µM.

As for `CS(=O)(=O)c1cccc(/C=C/S(=O)(=O)F)c1` [Compound 81], the IC50 came out at 34.9 ± 1.7 µM in experiment [2] (Homo sapiens, SMMC-7721, 48 h); 27.8 ± 1.32 µM in experiment [3] (setting [5]); 7.89 ± 0.56 µM in the experiment with human melanoma cell A375 (setting [6]); 2.55 ± 0.4 µM against telomerase.

For `CC(C)S(=O)(=O)c1ccc(/C=C/S(=O)(=O)F)cc1` [Compound 82], the IC50 in experiment [2] (Homo sapiens, SMMC-7721, 48 h) amounted to 8.95 ± 0.27 µM; in experiment [3] (setting [5]), 28.7 ± 1.21 µM; in the experiment with human melanoma cell A375 (setting [6]), 24.2 ± 0.6 µM; against telomerase it was 37.9 ± 2.19 µM.

The values above are taken from PMC6116703, “Ethenesulfonyl fluoride derivatives as telomerase inhibitors: structure-based design, SAR, and anticancer evaluation in vitro” (Journal of Enzyme Inhibition and Medicinal Chemistry, 2018).
